Assay results reported in the NIST ThermoML archive (doi:10.1016/j.fluid.2008.01.004).

Assays:
[1] = wn = mass fraction of the nth substance listed; conditions: 101 kPa, Liquid; for speed of sound: Sing-around technique in a fixed-path interferometer
[2] = mn = molality of the nth substance listed, in mol/kg; conditions: 283.15 K; 101 kPa; Liquid; m2 = 0

CCCO [propan-1-ol] + O
[1]
Conditions	mass density, 283.15 K [kg/m3]	mass density, 288.15 K [kg/m3]	mass density, 293.15 K [kg/m3]	mass density, 298.15 K [kg/m3]	mass density, 303.15 K [kg/m3]	speed of sound, 283.15 K [m/s]	speed of sound, 288.15 K [m/s]	speed of sound, 293.15 K [m/s]	speed of sound, 298.15 K [m/s]	speed of sound, 303.15 K [m/s]
w1 = 0.05	992.405	991.687	990.671	989.387	987.86	1499	1512.2	1523.9	1533.8	1542.2
w1 = 0.1	987.187	986.194	984.913	983.372	981.595	1548.6	1556.5	1563.3	1568.7	1572.9
w1 = 0.15	982.892	981.496	979.828	977.921	975.791	1585.2	1587.6	1589	1589.2	1588.6

O [water] + O=P([O-])([O-])[O-].[Na+].[Na+].[Na+]
Conditions	mass density [kg/m3]
[2]	999.699
